# ChEMBL document CHEMBL1921720, “A new antifungal briarane diterpenoid from the gorgonian Junceella juncea Pallas” (2011)
# Activity calls are given as the source filed them. The rule behind the calls is not given here.
# Tests used:
# Assay type in all cases: functional
# Bacillus subtilis = test: Antibacterial activity against Bacillus subtilis at 200 ug/mL after 24 hrs by agar cup diffusion method; conditions: for zone of inhibition at 200 µg/mL: read-out: DIZ
# Candida albicans = test: Antifungal activity against Candida albicans at 200 ug/mL after 48 hrs by agar cup diffusion assay; conditions: for zone of inhibition at 200 µg/mL: read-out: DIZ
# Aspergillus niger = test: Antifungal activity against Aspergillus niger at 200 ug/mL after 48 hrs by agar cup diffusion assay; conditions: for zone of inhibition at 200 µg/mL: read-out: DIZ
# Bacillus pumilus = test: Antibacterial activity against Bacillus pumilus at 200 ug/mL after 24 hrs by agar cup diffusion method; conditions: for zone of inhibition at 200 µg/mL: read-out: DIZ
# Penicillium chrysogenum = test: Antifungal activity against Penicillium chrysogenum at 200 ug/mL after 48 hrs by agar cup diffusion assay
# Proteus vulgaris = test: Antibacterial activity against Proteus vulgaris at 200 ug/mL after 24 hrs by agar cup diffusion method; conditions: for zone of inhibition at 200 µg/mL: read-out: DIZ
# Escherichia coli = test: Antibacterial activity against Escherichia coli at 200 ug/mL after 24 hrs by agar cup diffusion method; conditions: for zone of inhibition at 200 µg/mL: read-out: DIZ
SMILES,diameter of the inhibition zone (DIZ) (Bacillus subtilis),zone of inhibition at 200 µg/mL (Candida albicans),zone of inhibition at 200 µg/mL (Aspergillus niger),diameter of the inhibition zone (DIZ) (Bacillus pumilus),zone of inhibition at 200 µg/mL (Penicillium chrysogenum; read-out: DIZ),diameter of the inhibition zone (DIZ) (Proteus vulgaris),diameter of the inhibition zone (DIZ) (Escherichia coli),zone of inhibition at 200 µg/mL (Bacillus subtilis),diameter of the inhibition zone (DIZ) (Candida albicans),diameter of the inhibition zone (DIZ) (Aspergillus niger),zone of inhibition at 200 µg/mL (Bacillus pumilus),diameter of the inhibition zone (DIZ) (Penicillium chrysogenum),zone of inhibition at 200 µg/mL (Proteus vulgaris),zone of inhibition at 200 µg/mL (Escherichia coli)
C=C1CC[C@H](OC(C)=O)[C@@]2(C)[C@@H](OC(=O)CC(C)C)C[C@@H](OC(C)=O)[C@]3(CO3)[C@@H]2[C@H](OC(C)=O)[C@@]2(O)[C@H](C1)OC(=O)[C@@H]2C,inactive,17 mm,18 mm,inactive,16 mm,inactive,inactive,–,–,–,–,–,–,–
CC1(C)S[C@@H]2[C@H](NC(=O)[C@H](N)c3ccccc3)C(=O)N2[C@H]1C(=O)O [AMPICILLIN],–,–,–,–,–,–,–,17 mm,inactive,inactive,18 mm,inactive,16 mm,17 mm
C=C1CC[C@H](OC(C)=O)[C@@]2(C)[C@@H](OC(C)=O)[C@@H](OC(C)=O)[C@@H](OC(C)=O)[C@]3(CO3)[C@@H]2[C@H](OC(C)=O)[C@]2(O)[C@@H](C)C(=O)O[C@H]2[C@H]1Cl [GEMMACOLIDE A],–,8 mm,10 mm,–,–,–,–,10 mm,–,–,19 mm,inactive,12 mm,20 mm
C=C1CC[C@H](OC(C)=O)[C@@]2(C)[C@@H](OC(C)=O)[C@@H](OC(=O)CC(C)C)[C@@H](OC(C)=O)[C@]3(CO3)[C@@H]2[C@H](OC(C)=O)[C@]2(O)[C@@H](C)C(=O)O[C@H]2[C@H]1Cl [GEMMACOLIDE B],–,8 mm,10 mm,–,–,–,–,10 mm,–,–,19 mm,inactive,12 mm,20 mm
C=C1CC[C@H](OC(C)=O)[C@@]2(C)[C@@H](OC(=O)CC(C)C)C[C@@H](OC(C)=O)[C@]3(CO3)[C@@H]2[C@H](OC(C)=O)[C@]2(O)[C@@H](C)C(=O)O[C@H]2[C@H]1Cl [JUNCIN H],–,–,6 mm,–,–,–,–,12 mm,inactive,–,10 mm,inactive,13 mm,14 mm
CC(=O)OCC1=C/[C@@H]2OC(=O)[C@H](C)[C@@]2(O)[C@@H](OC(C)=O)[C@H]2[C@@]3(CO3)[C@H](OC(=O)CC(C)C)C[C@H](OC(=O)CC(C)C)[C@]2(C)[C@@H](OC(C)=O)/C=C\1 [JUNCIN K],–,–,8 mm,–,–,–,–,13 mm,inactive,–,13 mm,inactive,14 mm,15 mm
CC(=O)N1CCN(c2ccc(OCC3COC(Cn4ccnc4)(c4ccc(Cl)cc4Cl)O3)cc2)CC1 (centres undefined) [KETOCONAZOLE],inactive,21 mm,24 mm,inactive,–,inactive,inactive,–,–,–,–,inactive,–,–
